The values that follow come from US20200371122A1, “BIOMARKER FOR SENESCENT CELLS” (Buck Institute for Research on Aging, priority 2017, published 2020).

The test system of assay [1] is IMR-90 fibroblasts. Nature of the assay: Induction of senescence in non-senescent cells by prostaglandins or 5-LOX pathway products (EdU, SA-B-gal, p21, immunoblot). The format is cell-based, human. How it is done:
RNA was extracted from cells or tissues using commercially available kits (Isolate II—Bioline for cells; Direct-zol—Zymo for tissues) according to the manufacturer's instructions. cDNA synthesis was performed using a High Capacity cDNA Reverse Transcription Kit (Thermo Fisher) according to the manufacturer's instructions. Quantitative PCR was performed on a LightCycler 480 II (Roche) using primers and probes designed for the Universal Probe Library. Primers and probes used for human transcripts were ACTB: 5′-CCAACCGCGAGAAGATGA (SEQ ID NO:1), 5′-TCCATCACGATGCCAGTG (SEQ ID NO:2), Probe #64; TUBA: 5′-cttcgtctccgccatcag (SEQ ID NO:3), 5′-ttgccaatctggacacca (SEQ ID NO:4), Probe #58; ALOX5: 5′-[…] (SEQ ID NO:5), 5′-[…] (SEQ ID NO:6), Probe #64; ALOX5AP: 5′-ggtctgcggggctacttt (SEQ ID NO:7), 5′-[…] (SEQ ID NO:8), Probe #18; ALOX12: 5′-[…] (SEQ ID NO:9), 5′-agccaggtcgtcaggag (SEQ ID NO:10), Probe #32; ALOX15: 5′-[…] (SEQ ID NO:11), 5′-[…] (SEQ ID NO:12), Probe #76; ALOX15B: 5′-[…] (SEQ ID NO:13), 5′-actgggaggcgaagaagg (SEQ ID NO:14), Probe #51; AKR1C1: 5′-catgcctgtcctgggattt (SEQ ID NO:15), 5′-[…] (SEQ ID NO:16), Probe #49; AKR1C2: 5′-ctatgcgcctgcagaggt (SEQ ID NO:17), 5′-[…] (SEQ ID NO:18), Probe #31; AKR1C3: 5′-[…] (SEQ ID NO:19), 5′-[…] (SEQ ID NO:20), Probe #78; CYSLTR2: 5′-[…] (SEQ ID NO:21), 5′-[…] (SEQ ID NO:22), Probe #18; DPEP1: 5′-gacgtcctgaggctggtg (SEQ ID NO:23), 5′-[…] (SEQ ID NO:24), Probe #9 (SEQ ID NO:25), ELOVL2: 5′-[…] (SEQ ID NO:26), 5′-[…] (SEQ ID NO:27), Probe #53; ELOVL4: 5′-catttggcccatggattc (SEQ ID NO:28), 5′-[…] (SEQ ID NO:29), Probe #31; ELOVL5: 5′-cccttccatgcgtccata (SEQ ID NO:30), 5′-[…] (SEQ ID NO:31), Probe #31; EPHX2: 5′-ttctgctggacaccctgaa (SEQ ID NO:32), 5′-[…] (SEQ ID NO:33), Probe #45; GPX4: 5′-ttcccgtgtaaccagttcg (SEQ ID NO:34), 5′-[…] (SEQ ID NO:35), Probe #36; LTA4H: 5′-ctgctctcacggtccagtc (SEQ ID NO:36), 5′-[…] (SEQ ID NO:37), Probe #64; LTBR2: 5′-[…] (SEQ ID NO:38), 5′-[…] (SEQ ID NO:39), Probe #33; LTC4S: 5′-[…] (SEQ ID NO:40), 5′-[…] (SEQ ID NO:41), Probe #18; PTGDS: 5′-[…] (SEQ ID NO:42), 5′-[…] (SEQ ID NO:43), Probe #36; PTGES: 5′-agagatgcctgcccacag (SEQ ID NO:44), 5′-tggccaccacgtacatctt (SEQ ID NO:45), Probe #4; PTGES2: 5′-[…] (SEQ ID NO:46), 5′-[…] (SEQ ID NO:47), Probe #49; PTGES3 (SEQ ID NO:48), 5′-[…] (SEQ ID NO:49), 5′-[…] (SEQ ID NO:50), Probe #48; PTGIS: 5′-[…] (SEQ ID NO:51), 5′-[…] (SEQ ID NO:52), Probe #45; PTGR1: 5′-atgatggggcagcaagtg (SEQ ID NO:53), 5′-cccatcagaaatggagtgc (SEQ ID NO:54), Probe #64; PTGS1: 5′-[…] (SEQ ID NO:55), 5′-gtggtggtccatgttcctg (SEQ ID NO:56), Probe #81; PTGS2: 5′-gatccccagggctcaaac (SEQ ID NO:57), 5′-[…] (SEQ ID NO:58), Probe #61; TBXAS1: 5′-[…] (SEQ ID NO:59), 5′-tgcctcccgtgtgaatct (SEQ ID NO:60), Probe #73; AREG: 5′-[…] (SEQ ID NO:61), 5′-[…] (SEQ ID NO:62), Probe #73; CCL2: 5′-AGTCTCTGCCGCCCTTCT (SEQ ID NO:63), 5′-GTGACTGGGGCATTGATTG (SEQ ID NO:64), Probe #40; CCL27: 5′-[…] (SEQ ID NO:65), 5′-gctgggtggcagtaggaat (SEQ ID NO:66), Probe #18; CXCL1: 5′-[…] (SEQ ID NO:67), 5′-[…] (SEQ ID NO:68), Probe #52; HGF: 5′-[…] (SEQ ID NO:69), 5′-[…] (SEQ ID NO:70), Probe #49; ILIA: 5′-[…] (SEQ ID NO:71), 5′-[…] (SEQ ID NO:72), Probe #6; IL1B: 5′-[…] (SEQ ID NO:73), 5′-[…] (SEQ ID NO:74), Probe #78; IL6: 5′-[…] (SEQ ID NO:75), 5′-gaaggcagcaggcaacac (SEQ ID NO:76), Probe #45; IL8: 5′-[…] (SEQ ID NO:77), 5′-atggttccttccggtggt (SEQ ID NO:78), Probe #72; IL10: 5′-[…] (SEQ ID NO:79), 5′-[…] (SEQ ID NO:80), Probe #67; MMP3: 5′-[…] (SEQ ID NO:81), 5′-[…] (SEQ ID NO:82), Probe #36; PDGFA: 5′-[…] (SEQ ID NO:83), 5′-[…] (SEQ ID NO:84), Probe #80; VEGF: 5′-[…] (SEQ ID NO:85), 5′-[…] (SEQ ID NO:86), Probe #50; P21WAF1(CDKN1A): 5′-[…]

For assay [2], the system named is bleomycin-induced fibrosis. As to conditions: administration; Kida 2016, Genovese 2005; cited from earlier work.
For assay [3], the system named is IMR-90 fibroblasts depleted of p53 by shRNA. In words: Prostaglandin treatment of p53-depleted (shp53) IMR-90 fibroblasts (Ki67, cleaved caspase 3). The format is cell-based, human. The note with it: shp53 cells, 3 days. As for the experimental part: For EdU labeling, cells were cultured with EdU (10 μM) for 24 h, fixed in 4% buffered formalin for 10 min, washed in PBS, and permeabilized in 0.5% Triton X-100 for 30 min. Cells were treated as instructed by the manufacturer Life Technologies Cat #C10337). For immunofluorescence, cells were blocked in 10% normal goat serum for 30 min, washed, and incubated overnight in antibodies to Ki67 (Abcam) or cleaved caspase 3 (Cell Signaling). Cell were then washed, incubated in fluorescent secondary antibodies, and mounted using vectashield mounting medium with DAPI.

The subject of assay [4] is IL-6 secretion. Nature of the assay: IL-6 ELISA on non-senescent cells treated with prostaglandins. Type of assay: cell-based, human. As to conditions: 10 μM, 10 days. How it is done: Human fetal lung fibroblasts (IMR-90) were cultured in Dulbecco's modified eagle medium (DMEM) supplemented with 10% FBS and penicillin/streptomycin. LL 29 (AnHa) cells were obtained from the ATCC and growth to confluence using the ATCC protocol, but were subcultured as described for IMR-90 before initiation of all experiments. Quiescence was induced by replacing culture media with media containing 0.2% FBS. MCF-7 and MDA-MB-231 breast cancer cells were cultured in RPMI supplemented with 10% FBS and penicillin/streptomycin. All cells were cultured at 3% O2, and used between 25 and 40 population doublings. All cells were mycoplasma free.
3×10^4 cells in 12-well plates were treated as indicated in the text, and cultured in 0.5-1 ml serum-free DMEM for 24 hr. CM were collected and clarified at 2,000×g for 10 min. Supernatants were transferred to a tube; cells were trypsinized and counted. CM (2.5 μl) were analyzed by bead-based ELISAs (AlphaLISA, Perkin-Elmer) as instructed by the manufacturer and normalized to cell number.

`CCCCC[C@H](O)/C=C/[C@H]1C(=O)C[C@H](O)[C@@H]1C/C=C\CCCC(=O)O` [PGD2, prostaglandin D2]: in assay [1] (10 μM, 10 days), the “levels of LMNB1 and cellular HMGB1” value was “reduced levels”; the p21 gene expression entry is on record as “induced”; the senescence-associated beta-galactosidase entry is on record as “induced”. In assay [1] (10 μM, 10 days, immunoblot), the p21 protein accumulation result is “induced” and the p53 stabilization entry is “stabilized”. In assay [1] (10 μM, 10 days, western blot), the “p53 phosphorylation or acetylation” value is “without increasing”. Also, the “expression of MMP3 and secretion of IL-6 on removal of the prostaglandin” value in assay [1] (release after 7 days at 10 μM) is “reduced”. Further, the bleomycin-induced fibrosis result in assay [2] was “attenuate”. In assay [3], the “apoptosis (positivity for cleaved caspase 3)” value is recorded as “underwent apoptosis” and the “continued cell division (Ki67 positivity) after loss of p53” value is listed as “did not allow”. Also, the IL-6 secretion result in assay [4] is reported as “elevated”.
